Test results from patent US8470783B2, “Medicinal use of histone deacetylase inhibitor and method of evaluating antitumor effect thereof” (Astellas Pharma Inc., priority 2001, dated 2013).

What was measured:
[1] = tested on: human prostate cancer PC-3; experiment: In vitro growth suppression, PC-3; type: cell-based; conditions: PC-3, contacted for 72 hr
human lymphoma U937 = experiment: In vitro growth suppression, U937; type: cell-based; conditions: U937, contacted for 72 hr
human kidney cancer ACHN [2] = experiment: In vitro growth suppression, ACHN; type: cell-based; conditions: contacted for 72 hr
[3] = tested on: p21 gene expression in PC-3 cells; experiment: p21 gene expression in vitro by real time PCR, PC-3 (Example 4); type: cell-based, human; conditions: PC-3, FR901228 5 ng/mL, FIG. 4(a)
Procedure: (§1) A necessary amount of FR901228 was weighed and dissolved in a solvent (99.5% ethanol) to the concentration of 1 mg/mL. Then, the solution was diluted with culture medium.
(§2) Cultured human cancer cell (PC-3 and ACHN) were cultured in DMEM (containing 10% FCS).
(§3) The cells were inoculated at 2×10^6 cells per a culture dish, and cultured in the presence of FR901228 (5 ng/mL) for a given time. After culturing, RNA was extracted with a TRIZOL reagent (GIBCO BRL) according to the operation manual.
(§4) RNA was subjected to reverse transcription using a Taq-man reverse transcription reagent (PE Biosystem) according to the operation manual. Thereafter, p21 gene was amplified using a SYBR green PCR master mix (PE Biosystem) and primer 5′-GGCAGACCAGCATGACACATT-3′ (p21 upstream)(SEQ ID; No 1), 5′-GGATTAGGGCTTCCTCTTGGAG-3′ (SEQ ID; No 2) according to the operation manual, and detected with ABI 7700 PRISM sequence detector (PE Biosystem). The expression amount of p21 gene was calculated from a standard curve, divided by the expression amount of β-actin gene, which was used as an internal standard, and expressed in a standardized relative expression amount.

human kidney cancer ACHN [4] = experiment: In vivo growth suppression rate, ACHN tumor-carrying mice; set-up: species or system mouse; conditions: FR901228 3.2 mg/kg
Procedure: (§5) The growth suppression rate of human prostate cancer PC-3, human gastric cancer SC-6, human kidney cancer ACHN and human kidney cancer A498 by the administration of FR901228 (3.2 mg/kg) was 98%, 84%, 20% and 29%, respectively. Therefore, PC-3 and SC-6 were determined to be FK228 sensitive tumors, and ACHN and A498 were determined to be FK228 resistant tumors.

[5] = tested on: human prostate cancer cell line PC-3; experiment: Antitumor test, human prostate cancer PC-3 solid tumor in nude mice (Example 1); type: in vivo, mouse; conditions: PC-3, i.v. q4d×3, 3.2 and 1.8 mg/kg, FIG. 1
Procedure: (§6) A necessary amount of FR901228 was weighed and a solvent (10% HCO-60/saline) was added. The mixture was sonicated to allow for dissolution. A positive control substance Paclitaxel was dissolved in Cremophor EL/ethanol (1:1) solution to 24 mg/mL prior to the testing, and preserved in a refrigerator. When in use, it was diluted with a 9-fold amount of physiological saline to 2.4 mg/mL (solvent component: 5% Cremophor EL-5% ethanol-90% saline).
For antitumor test of the pharmaceutical agent, BALB/cANnNCrj-nu/nu mice (male, 6-week-old) were purchased from Charles River Japan and, after acclimation for not less than one week, used for the test. The mice were reared under an SPF environment and allowed a free access to water and feed. […]
(§7) The administration was started on the day of grouping (Day 0). […] The amount of liquid for each administration was calculated (0.1 mL/10 g body weight) based on the body weight measured on the administration day. […]
(§8) The tumor size (longer diameter, shorter diameter) and body weight were measured twice a week from Day 0.
The level of tumor growth was evaluated based on the tumor growth rate (Relative Tumor Volume). […] The antitumor effect was determined on the 14th day (Day 14) from the start of the administration of the pharmaceutical agent. […]

[6] = tested on: human prostate cancer cell line PC-3; experiment: Antitumor test, human prostate cancer PC-3 solid tumor in nude mice (Example 3); type: in vivo, mouse; conditions: dose of 3.2 mg/kg i.v. q4d×3, FIG. 3(a)
Procedure: as §6
(§9) For antitumor test of the pharmaceutical agent, BALB/cANnNCrj-nu/nu mice (male, […]) were purchased from Charles River Japan and, after acclimation for not less than one week, used for the test. The mice were reared under an SPF environment and allowed a free access to water and feed. […]
as §7, §8
(§10) The level of tumor growth was evaluated based on the tumor growth rate (Relative Tumor Volume). […] The antitumor effect was determined on the 14th day (Day 14) from the start of the administration of a pharmaceutical agent. […]

[7] = tested on: human gastric cancer SC-6; experiment: In vivo growth suppression rate, SC-6 tumor-carrying mice; set-up: species or system mouse; conditions: SC-6, FR901228 3.2 mg/kg
Procedure: as §5

histone deacetylase = conditions: Nakajima, H. et al (1998); cited from earlier work
[8] = tested on: human lymphoma cell line U937; experiment: Survival test, human lymphoma U937 implanted intraperitoneally in SCID mice (Example 2); type: in vivo, mouse; conditions: U937, i.p. once or twice a week, 0.1-1.0 mg/kg, FIG. 2
Procedure: A necessary amount of FR901228 was weighed and a solvent (10% HCO-60/saline) was added. The mixture was sonicated to allow for dissolution.
For antitumor test of the pharmaceutical agent, Fox Chase C. B-17/Icr-SCID.Jcl mice (male, 6-week-old) were purchased from CLEA JAPAN INC. and, after acclimation for not less than one week, used for the test. The mice were reared under an SPF environment and allowed a free access to water and feed.
Cultured human lymphoma cell line (U937: obtained from Dr. Minowada, Hayashibara Biochemical Laboratories, Inc.) was cultured in RPMI (containing 10% FCS) and subcultured in vitro.
Cyclo phosphamide (Shionogi & Co., Ltd., 150 mg/kg) was intraperitoneally administered to mice. Lymphoma (1×10^7 cells) subcultured in vitro was intraperitoneally implanted the next day. After the tumor implantation, the mice were grouped into 6 (control group 12) mice per group to level the body weight.
The administration was started on the day of grouping (Day 0). FR901228 was intraperitoneally administered to an FR901228 administration group once or twice a week (0.1-1.0 mg/kg). Only a solvent (10% HCO-60/saline) was administered to a control group.
As an antitumor effect, the survival days of the mice were counted.

[9] = tested on: human kidney cancer cell line ACHN; experiment: Antitumor test, human kidney cancer ACHN solid tumor in nude mice (Example 3); type: in vivo, mouse; conditions: i.v. q4d×3, FIG. 3(b)
Procedure: as §6, §9, §7, §8, §10

[10] = tested on: human prostate cancer PC-3; experiment: In vivo growth suppression rate, PC-3 tumor-carrying mice; set-up: species or system mouse; conditions: PC-3, FR901228 3.2 mg/kg
Procedure: as §5

[11] = tested on: p21 gene and c-myc gene expression in ACHN tumor; experiment: p21 and c-myc gene expression in vivo in ACHN tumor of nude mouse (Example 5); conditions: 3.2 mg/kg i.v.
Procedure: (§11) Human prostate cancer PC-3 or kidney cancer ACHN was subcutaneously implanted in a nude mouse, and when the size of the tumor reached 100-300 mg, FR901228 (3.2 mg/kg) was intravenously administered. The tumor was removed with the lapse of time, and after extracting RNA, the expression amount of p21 gene and c-myc gene was examined by real time PCR in the same manner as in Example 4. The c-myc gene was amplified using a SYBR green PCR master mix (PE Biosystem) and primer 5′-GACAGATCAGCAACAACCGAAA-3′ (human c-myc upstream)(SEQ ID; No 3), 5′-TTGTGTGTTCGCCTCTTGACAT-3′ (human c-myc downstream)(SEQ ID; No 4) according to the operation manual, and detected with ABI 7700 PRISM sequence detector (PE Biosystem).

[12] = tested on: p21 gene expression in ACHN cells; experiment: p21 gene expression in vitro by real time PCR, ACHN (Example 4); type: cell-based, human; conditions: FR901228 5 ng/mL, FIG. 4(b)
Procedure: as §1, §2, §3, §4

human kidney cancer A498 = experiment: In vivo growth suppression rate, A498 tumor-carrying mice; set-up: species or system mouse; conditions: A498, FR901228 3.2 mg/kg
Procedure: as §5

[13] = tested on: p21 gene and c-myc gene expression in PC-3 tumor; experiment: p21 and c-myc gene expression in vivo in PC-3 tumor of nude mouse (Example 5); conditions: 3.2 mg/kg i.v.
Procedure: as §11

| Molecule | growth suppression effect in IC50 value [1] [ng/mL] | growth suppression effect in IC50 value (human lymphoma U937) [ng/mL] | growth suppression effect in IC50 value (human kidney cancer ACHN [2]) [ng/mL] | p21 gene expression in vitro [3] | growth suppression rate (human kidney cancer ACHN [4]) [%] | antitumor effect in vivo against human prostate cancer (tumor growth rate) [5] | antitumor effect against PC-3 (tumor growth rate) [6] | growth suppression rate [7] [%] | histone deacetylase inhibitory activity (histone deacetylase) | antitumor effect in vivo against human lymphoma (survival of mice) [8] | antitumor effect against ACHN (tumor growth rate) [9] | growth suppression rate [10] [%] | c-myc gene expression in vivo [11] | p21 gene expression in vivo ([11]; FIG. 5(a)) | p21 gene expression in vitro [12] | growth suppression rate (human kidney cancer A498) [%] | c-myc gene expression in vivo [13] | time of peak of p21 gene expression after administration [13] [h] | p21 gene expression in vivo ([13]; FIG. 5(a)) |
| --- | --- | --- | --- | --- | --- | --- | --- | --- | --- | --- | --- | --- | --- | --- | --- | --- | --- | --- | --- |
| FK228 | 3.17 | 3.20 | 4.25 | – | – | – | – | – | – | – | – | – | – | – | – | – | – | – | – |
| C/C=C1\NC(=O)[C@H]2CSSCC/C=C/[C@H](CC(=O)N[C@H](C(C)C)C(=O)N2)OC(=O)[C@H](C(C)C)NC1=O [FR901228] | – | – | – | increased expression of the p21 gene with the lapse of time | 20 | showed an antitumor effect | potent antitumor effect | 84 | stronger histone deacetylase inhibitory activity | showed an antitumor effect | did not show an antitumor effect | 98 | increased expression | did not show increased expression of p21 gene | did not show increased expression of p21 gene | 29 | decreased expression | 3 | increased expression of p21 gene |
